From BindingDB's records for doi:10.1016/s0960-894x(02)00385-2 (National Institute of Diabetes and Digestive and Kidney …, 2002)

Target: T1, Mycothiol S-conjugate amidase (Mycobacterium tuberculosis (strain ATCC 25618 / H37Rv), UniProt P9WJN1)
T1 sequence (P9WJN1 whole entry): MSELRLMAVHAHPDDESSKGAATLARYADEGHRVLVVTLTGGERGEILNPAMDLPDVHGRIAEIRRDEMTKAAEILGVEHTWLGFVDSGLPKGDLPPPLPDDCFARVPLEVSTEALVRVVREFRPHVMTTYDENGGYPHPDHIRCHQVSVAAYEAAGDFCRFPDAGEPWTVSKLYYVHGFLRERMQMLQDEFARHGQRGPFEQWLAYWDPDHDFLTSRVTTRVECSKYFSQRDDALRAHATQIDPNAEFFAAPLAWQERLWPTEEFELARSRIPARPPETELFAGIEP
Assay: ChEBML_140808
Source text: Inhibition of Mycothiol -S-conjugate amidase (MCA) from mycobacterium tuberculosis

O=NC(Cc1ccc(O)c(Br)c1)C(=O)NCCSSCCNC(=O)C(Cc1ccc(O)c(Br)c1)N=O (configuration not stated) [3-(3-bromo-4-hydroxy-phenyl)-N-[2-(2-{3-(3-bromo-4-hydroxy-phenyl)-2-[hydroxyimino]-propionylamino}-ethyldisulfanyl)-ethyl]-2-[hydroxyimino]-propionamide]
IC50: 2800 nM

N=C(N)CCCCNC(=O)C(Cc1cc(Br)c(OCCCN)c(Br)c1)N=O (configuration not stated) [3-[4-(3-Amino-propoxy)-3,5-dibromo-phenyl]-N-(4-carbamimidoyl-butyl)-2-[(E)-hydroxyimino]-propionamide]
IC50: 2800 nM
